Test results as given in paper PMC8231969, “Characterization of Two NMN Deamidase Mutants as Possible Probes for an NMN Biosensor” (International Journal of Molecular Sciences, 2021).
Substitutions are numbered along the chain they refer to. In names and notes the source's numbering stands. Where two headings read alike, the source gives them in different places.

B1: NMN deamidase (PncC) from E. coli, wild type (enzyme, UniProt P0A6G3 1-165, looked up)
chain: MTDSELMQLSEQVGQALKARGATVTTAESCTGGWVAKVITDIAGSSAWFERGFVTYSNEAKAQMIGVREETLAQHGAVSEPVVVEMAIGALKAARADYAVSISGIAGPDGGSEEKPVGTVWFAFATARGEGITRRECFSGDRDAVRRQATAYALQTLWQQFLQNT
notes: NMN deamidase PncC (EC 3.5.1.42), E. coli; the enzyme consists of 165 residues, 17.6 kDa; expressed from pCA24N-pncC; also called WT PncC; wild-type PncC; source: E. coli BL21(DE3), purified (HisTrap HP column, dialysis); not shown: His tag (from the HisTrap HP purification)
B2: K61Q PncC (enzyme, E. coli, UniProt P0A6G3 1-165, looked up)
chain: B1 chain with K61Q
notes: NMN deamidase PncC (EC 3.5.1.42), E. coli; 165 residues; mutagenized pCA24N-pncC plasmid; also called PncC K61Q mutant; source: E. coli BL21(DE3), purified (HisTrap HP column, dialysis); not shown: His tag (from the HisTrap HP purification)
B3: S29A PncC (enzyme, E. coli, UniProt P0A6G3 1-165, looked up)
chain: B1 chain with S29A
notes: NMN deamidase PncC (EC 3.5.1.42), E. coli; 165 residues; mutagenized pCA24N-pncC plasmid; also called PncC S29A mutant; source: E. coli BL21(DE3), purified (HisTrap HP column, dialysis); not shown: His tag (from the HisTrap HP purification)

Tests used:
[1] = system: glutamine binding protein (GlnBP); conditions: GlnBP, high concentration of nucleotide
Description: Steady-state measurements were performed using an ISS_K2 fluorometer (ISS, Urbana-Champaign, IL, USA), equipped with a one-cell temperature-controlled sample holder. […] Excitation and emission slit widths were fixed at 0.5 and 1.0 nm, respectively. […] The nucleotides were added to reach the indicated final concentration (from 0.18 to 96 µM) with an incubation interval of 10 min. Triplicate readings were done for each experimental point. Experiments were repeated three times (for NMN and NaMN) or twice (for all the other metabolites). Controls experiments were performed using the E. coli Glutamine Binding Protein (GlnBP, 3µM), with increasing concentration of NMN or NaMN, at the same conditions.
Percentages of reduction of fluorescence intensities compared to buffer, were calculated as follow: (normalized fluorescence in presence of analyte at a given [µM]/normalized fluorescence in presence of corresponding volume of buffer) × 100.

S29A PncC = target: T1, S29A PncC (Escherichia coli, UniProt P0A6G3, S29A); format: binding, E. coli
T1 construct: made in house; host or cells: E. coli BL21(DE3)
From the text: (§1) Experimental data were processed using the OriginPro 8.0 (OriginLab Corporation, Northampton, MA, USA). A non-linear curve analysis (Hill1 plot) was used for plotting the F0/F values in function of the metabolite concentration, to obtain the Kd value.

K61Q PncC = target: T2, K61Q PncC (Escherichia coli, UniProt P0A6G3, K61Q); format: binding, E. coli
T2 construct: made in house; host or cells: E. coli BL21(DE3)
Description: as §1
Percentage of the K61Q protein that would exist in complex with NMN in a cellular setting was calculated based on the Kd value, by using the equation: %=100/1+Kd/[NMN]

[2] = target: the molecule itself; assay: SEC; gel filtration on Superose 12 HR 10/30, 50 mM HEPES pH 7.5, 0.3 M NaCl, 1 mM TCEP; 45 ug wild type, 30 ug mutants; calibrated with protein standards; self-association (dimer)
[3] = nucleotide 96 µM (maximum quenching)

T1 sequence (P0A6G3 whole entry S29A): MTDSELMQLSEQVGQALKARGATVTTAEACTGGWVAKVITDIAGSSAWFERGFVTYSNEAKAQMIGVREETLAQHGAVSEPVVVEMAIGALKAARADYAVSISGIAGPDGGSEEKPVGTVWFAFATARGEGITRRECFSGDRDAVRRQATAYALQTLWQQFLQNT
T2 sequence (P0A6G3 whole entry K61Q): as the sequence (P0A6G3 whole entry S29A) above, with A29S, K61Q counted along it

Row | Molecule | reduction of fluorescence of GlnBP [1] | S29A PncC fluorescence quenching (%) vs buffer (S29A PncC; nucleotide 0.185 µM) [%] | S29A PncC fluorescence quenching (%) vs buffer (S29A PncC; nucleotide 0.375 µM) [%] | S29A PncC fluorescence quenching (%) vs buffer (S29A PncC; nucleotide 0.75 µM) [%] | S29A PncC fluorescence quenching (%) vs buffer (S29A PncC; nucleotide 1.5 µM) [%] | S29A PncC fluorescence quenching (%) vs buffer (S29A PncC; nucleotide 3 µM) [%] | S29A PncC fluorescence quenching (%) vs buffer (S29A PncC; nucleotide 6 µM) [%] | S29A PncC fluorescence quenching (%) vs buffer (S29A PncC; nucleotide 12 µM) [%] | S29A PncC fluorescence quenching (%) vs buffer (S29A PncC; nucleotide 24 µM) [%] | S29A PncC fluorescence quenching (%) vs buffer (S29A PncC; nucleotide 48 µM) [%] | K61Q PncC fluorescence quenching (%) vs buffer (K61Q PncC; nucleotide 0.185 µM) [%] | K61Q PncC fluorescence quenching (%) vs buffer (K61Q PncC; nucleotide 0.375 µM) [%] | K61Q PncC fluorescence quenching (%) vs buffer (K61Q PncC; nucleotide 0.75 µM) [%] | K61Q PncC fluorescence quenching (%) vs buffer (K61Q PncC; nucleotide 1.5 µM) [%] | K61Q PncC fluorescence quenching (%) vs buffer (K61Q PncC; nucleotide 3 µM) [%] | K61Q PncC fluorescence quenching (%) vs buffer (K61Q PncC; nucleotide 6 µM) [%] | K61Q PncC fluorescence quenching (%) vs buffer (K61Q PncC; nucleotide 12 µM) [%] | K61Q PncC fluorescence quenching (%) vs buffer (K61Q PncC; nucleotide 24 µM) [%] | K61Q PncC fluorescence quenching (%) vs buffer (K61Q PncC; nucleotide 48 µM) [%] | stoichiometry N [2] | also measured
1 | NC(=O)c1cccnc1 [Nam, nicotinamide] | do not affect | 0.08 | 0.18 | 0.48 | 1.49 | 2.51 | 2.65 | 3.29 | 3.29 | 3.71 | 0 | 0.34 | 0.87 | 0.68 | 0.91 | 0.26 | 1.15 | 1.04 | 1.14 | – | S29A PncC fluorescence quenching (%) vs buffer (S29A PncC; [3]): 5.01%
2 | Nc1ncnc2c1ncn2[C@@H]1O[C@H](COP(=O)(O)OP(=O)([O-])OC[C@H]2O[C@@H]([n+]3cccc(C(=O)O)c3)[C@H](O)[C@@H]2O)[C@@H](O)[C@H]1O [NaAD, nicotinic acid adenine dinucleotide] | 6.3% | 0 | 0 | 0 | 0 | 0 | 0 | 0 | 0 | 1.97 | 0.65 | 1.02 | 1.68 | 2.19 | 2.25 | 2.39 | 3.72 | 4.13 | 5.77 | – | –
3 | NC(=O)c1ccc[n+]([C@@H]2O[C@H](COP(=O)(O)OP(=O)([O-])OC[C@H]3O[C@@H](n4cnc5c(N)ncnc54)[C@H](OP(=O)(O)O)[C@@H]3O)[C@@H](O)[C@H]2O)c1 [NADP] | 4.8% | 0 | 0 | 0.67 | 1.60 | 2.74 | 2.87 | 3.89 | 4.31 | 6.36 | 0 | 0.06 | 0.29 | 0.55 | 0.42 | 0 | 1.20 | 1.59 | 2.90 | – | K61Q PncC fluorescence quenching (%) vs buffer (K61Q PncC; nucleotide 96 µM): 5.1%
4 | NC(=O)c1ccc[n+]([C@@H]2O[C@H](COP(=O)([O-])OP(=O)(O)OC[C@H]3O[C@@H](n4cnc5c(N)ncnc54)[C@H](O)[C@@H]3O)[C@@H](O)[C@H]2O)c1 [NAD, nicotinamide adenine dinucleotide] | 6.6% | 0.52 | 0.32 | 0.80 | 0 | 0.19 | 0.32 | 1.35 | 2.54 | 4.58 | 0.63 | 1.39 | 1.57 | 0.80 | 0.85 | 0 | 0.65 | 0.36 | 0.72 | – | –
5 | O=C(O)c1cccnc1 [Na, nicotinic acid] | do not affect | 0 | 0 | 0 | 0 | 0 | 0 | 0 | 0.16 | 0.62 | 0.49 | 1.2 | 2.11 | 2.66 | 2.89 | 2.81 | 3.26 | 2.74 | 3.69 | – | –
6 | NC(=O)c1ccc[n+]([C@@H]2O[C@H](CO)[C@@H](O)[C@H]2O)c1 [NR, nicotinamide riboside] | do not affect | 0 | 0.12 | 0.80 | 0.96 | 1.84 | 1.98 | 2.29 | 3.13 | 3.51 | 2.13 | 2.97 | 3.37 | 3.71 | 3.13 | 2.36 | 2.7 | 2.1 | 1.79 | – | S29A PncC fluorescence quenching (%) vs buffer (S29A PncC; [3]): 4.48%
7 | B1 | – | – | – | – | – | – | – | – | – | – | – | – | – | – | – | – | – | – | – | 2 | –
8 | B2 | – | – | – | – | – | – | – | – | – | – | – | – | – | – | – | – | – | – | – | 2 | –
9 | B3 | – | – | – | – | – | – | – | – | – | – | – | – | – | – | – | – | – | – | – | 2 | –
